Drawing on PubChem BioAssay AID248 (DTP/NCI, 2004), this text covers T/C for 7 molecules.

The assay concerns L1210 leukemia ip in BDF1 mice, survival T/C. In words: NCI In Vivo Anticancer Drug Screen. Data for tumor model L1210 Leukemia (intraperitoneal) in B6D2F1 (BDF1) mice. The following applies: higher = longer survival. A digest of the protocol:
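Value reflects the ratio of survival in compound-treated mice to survival in vehicle-treated controls, with both groups carrying the same transplanted tumor.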

[1] abbreviates: endpoint: mean survival time, dose: 100.0 mg/kg/injection, schedule: Q04DX003 (ip), vehicle: Klucel (hydroxypropylcellulose) (HPC).
[2] abbreviates: endpoint: mean survival time, dose: 200.0 mg/kg/injection, schedule: Q04DX003 (ip), vehicle: Klucel (hydroxypropylcellulose) (HPC).
[3] abbreviates: endpoint: mean survival time, dose: 400.0 mg/kg/injection, schedule: Q04DX003 (ip), vehicle: Klucel (hydroxypropylcellulose) (HPC).

Where “and” joins values, the source holds several entries; their conditions need not be identical. Equal values may be shown once. Inconclusive results and toxic doses are left out.

`CNNCc1ccc(C(=O)NC(C)C)cc1`: the T/C reads like this: (endpoint: mean survival time, dose: 6.5 mg/kg/injection, schedule: Q01DX009 (ip), vehicle: saline) 110 % of control and 112 % of control; (endpoint: mean survival time, dose: 8.0 mg/kg/injection, schedule: Q01DX009 (ip), vehicle: saline) 121 % of control; (endpoint: mean survival time, dose: 12.0 mg/kg/injection, schedule: Q04DX002 (ip), vehicle: saline) 93 % of control and 91 % of control; (endpoint: mean survival time, dose: 13.0 mg/kg/injection, schedule: Q01DX Z (ip), vehicle: saline) 117 % of control; (endpoint: mean survival time, dose: 16.0 mg/kg/injection, schedule: Q01DX009 (oral), vehicle: saline) 116 % of control; (endpoint: mean survival time, dose: 16.0 mg/kg/injection, schedule: Q03HX008 (ip), vehicle: saline) 106 % of control. Besides, the T/C is 112 % of control (endpoint: mean survival time, dose: 16.0 mg/kg/injection, schedule: Q03HX016 (ip), vehicle: saline); 106 % of control (endpoint: mean survival time, dose: 16.0 mg/kg/injection, schedule: Q03HX016 (oral), vehicle: saline); 117 % of control (endpoint: mean survival time, dose: 19.0 mg/kg/injection, schedule: Q01DX Z (ip), vehicle: saline); 97 % of control (endpoint: mean survival time, dose: 24.0 mg/kg/injection, schedule: Q04DX002 (ip), vehicle: saline); 110 % of control and 117 % of control (endpoint: mean survival time, dose: 25.0 mg/kg/injection, schedule: Q01DX009 (ip), vehicle: saline); 151 % of control (endpoint: mean survival time, dose: 25.0 mg/kg/injection, schedule: Q#A X020 (ip), vehicle: saline). The T/C by setting is: (endpoint: mean survival time, dose: 32.0 mg/kg/injection, schedule: Q03HX008 (ip), vehicle: saline) 112 % of control; (endpoint: mean survival time, dose: 32.0 mg/kg/injection, schedule: Q03HX016 (ip), vehicle: saline) 117 % of control; (endpoint: mean survival time, dose: 37.5 mg/kg/injection, schedule: Q01DX009 (ip), vehicle: saline) 120 % of control and 123 % of control; (endpoint: mean survival time, dose: 50.0 mg/kg/injection, schedule: Q#A X020 (ip), vehicle: saline) 157 % of control; (endpoint: mean survival time, dose: 62.0 mg/kg/injection, schedule: Q01DX009 (ip), vehicle: saline) 155 % of control; (endpoint: mean survival time, dose: 64.0 mg/kg/injection, schedule: Q03HX008 (ip), vehicle: saline) 110 % of control. Moreover, the T/C is 157 % of control (endpoint: mean survival time, dose: 64.0 mg/kg/injection, schedule: Q03HX024 (ip), vehicle: saline); 151 % of control (endpoint: mean survival time, dose: 100.0 mg/kg/injection, schedule: Q01DX010 (ip), vehicle: saline); 159 % of control (endpoint: mean survival time, dose: 100.0 mg/kg/injection, schedule: Q01DX010 (oral), vehicle: saline); 158 % of control (endpoint: mean survival time, dose: 125.0 mg/kg/injection, schedule: Q01DX009 (ip), vehicle: clinical formulation); 167 % of control (endpoint: mean survival time, dose: 125.0 mg/kg/injection, schedule: Q01DX009 (ip), vehicle: saline); 109 % of control (endpoint: mean survival time, dose: 128.0 mg/kg/injection, schedule: Q01DX001 (ip), vehicle: saline). Also, the T/C runs as follows: (endpoint: mean survival time, dose: 128.0 mg/kg/injection, schedule: Q01DX001 (iv), vehicle: saline) 104 % of control; (endpoint: mean survival time, dose: 128.0 mg/kg/injection, schedule: Q01DX001 (oral), vehicle: saline) 106 % of control; (endpoint: mean survival time, dose: 128.0 mg/kg/injection, schedule: Q01DX009 (oral), vehicle: saline) 155 % of control and 164 % of control; (endpoint: mean survival time, dose: 128.0 mg/kg/injection, schedule: Q03HX008 (ip), vehicle: saline) 121 % of control; (endpoint: mean survival time, dose: 128.0 mg/kg/injection, schedule: Q04DX003 (ip), vehicle: saline) 121 % of control; (endpoint: mean survival time, dose: 128.0 mg/kg/injection, schedule: Q08DX002 (oral), vehicle: saline) 106 % of control. The T/C runs as follows: (endpoint: mean survival time, dose: 133.0 mg/kg/injection, schedule: Q01DX009 (ip), vehicle: saline) 150 % of control; (endpoint: mean survival time, dose: 150.0 mg/kg/injection, schedule: Q01DX009 (ip), vehicle: saline) 159 % of control; (endpoint: mean survival time, dose: 250.0 mg/kg/injection, schedule: Q01DX001 (ip), vehicle: saline) 112 % of control and 121 % of control; (endpoint: mean survival time, dose: 250.0 mg/kg/injection, schedule: Q01DX009 (ip), vehicle: clinical formulation) 184 % of control; (endpoint: mean survival time, dose: 250.0 mg/kg/injection, schedule: Q01DX009 (ip), vehicle: water) 188 % of control; (endpoint: mean survival time, dose: 256.0 mg/kg/injection, schedule: Q01DX001 (iv), vehicle: saline) 99 % of control. Besides, the T/C is, setting by setting: (endpoint: mean survival time, dose: 256.0 mg/kg/injection, schedule: Q01DX001 (oral), vehicle: saline) 110 % of control; (endpoint: mean survival time, dose: 256.0 mg/kg/injection, schedule: Q08DX002 (ip), vehicle: saline) 104 % of control; (endpoint: mean survival time, dose: 300.0 mg/kg/injection, schedule: Q01DX009 (ip), vehicle: saline) 166 % of control; (endpoint: mean survival time, dose: 320.0 mg/kg/injection, schedule: Q01DX010 (oral), vehicle: saline) 117 % of control; (endpoint: mean survival time, dose: 400.0 mg/kg/injection, schedule: Q01DX010 (im), vehicle: saline) 86 % of control; (endpoint: mean survival time, dose: 400.0 mg/kg/injection, schedule: Q01DX010 (oral), vehicle: saline) 116 % of control. The T/C (endpoint: mean survival time, dose: 400.0 mg/kg/injection, schedule: Q01DX010 (sc), vehicle: saline) is 90 % of control; the T/C (endpoint: mean survival time, dose: 512.0 mg/kg/injection, schedule: Q04DX003 (ip), vehicle: saline) was 155 % of control; the T/C (endpoint: mean survival time, dose: 512.0 mg/kg/injection, schedule: Q04DX003 (oral), vehicle: saline) is 151 % of control; the T/C (endpoint: mean survival time, dose: 758.0 mg/kg/injection, schedule: Q04DX002 (ip), vehicle: saline) is 103 % of control; the T/C (endpoint: median survival time, dose: 300.0 mg/kg/injection, schedule: Q01DX009 (ip), vehicle: saline) is 166 % of control and 170 % of control; the T/C (endpoint: median survival time, dose: 500.0 mg/kg/injection, schedule: Q01DX009 (ip), vehicle: saline) was 49 % of control and 54 % of control.

On to `Cc1ccc([N+](=O)[O-])cc1NC(=O)NC(=O)c1ccccc1`, for which the T/C reads like this: (endpoint: mean survival time, dose: 100.0 mg/kg/injection, schedule: Q04DX002 (ip), vehicle: Klucel (hydroxypropylcellulose) (HPC)) 92 % of control; (endpoint: mean survival time, dose: 200.0 mg/kg/injection, schedule: Q04DX002 (ip), vehicle: Klucel (hydroxypropylcellulose) (HPC)) 95 % of control; (endpoint: mean survival time, dose: 400.0 mg/kg/injection, schedule: Q04DX002 (ip), vehicle: Klucel (hydroxypropylcellulose) (HPC)) 97 % of control.

`O=C(Cl)C1CCCCC1`: the T/C by setting is: (endpoint: mean survival time, dose: 6.25 mg/kg/injection, schedule: Q01DX015 (ip), vehicle: saline) 93 % of control; (endpoint: mean survival time, dose: 12.5 mg/kg/injection, schedule: Q01DX015 (ip), vehicle: saline) 89 % of control; (endpoint: mean survival time, dose: 25.0 mg/kg/injection, schedule: Q01DX015 (ip), vehicle: saline) 93 % of control and 96 % of control; (endpoint: mean survival time, dose: 50.0 mg/kg/injection, schedule: Q01DX015 (ip), vehicle: saline) 90 % of control.

`CC(=O)ONc1nc(C)c(CCC2OCCO2)c(=O)[nH]1`: the T/C reads like this: (endpoint: mean survival time, dose: 100.0 mg/kg/injection, schedule: Q01DX009 (ip), vehicle: Klucel (hydroxypropylcellulose) (HPC)) 95 % of control; under setting [1], 105 % of control; (endpoint: mean survival time, dose: 200.0 mg/kg/injection, schedule: Q01DX009 (ip), vehicle: Klucel (hydroxypropylcellulose) (HPC)) 102 % of control; under setting [2], 105 % of control; (endpoint: mean survival time, dose: 400.0 mg/kg/injection, schedule: Q01DX009 (ip), vehicle: Klucel (hydroxypropylcellulose) (HPC)) 95 % of control; under setting [3], 98 % of control.

For `CCCCCCCCCCCCCCCCCN`, the T/C was 100 % of control (endpoint: mean survival time, dose: 12.5 mg/kg/injection, schedule: Q01DX009 (ip), vehicle: Klucel (hydroxypropylcellulose) (HPC)); 93 % of control (endpoint: mean survival time, dose: 12.5 mg/kg/injection, schedule: Q04DX003 (ip), vehicle: Klucel (hydroxypropylcellulose) (HPC)); 101 % of control (endpoint: mean survival time, dose: 25.0 mg/kg/injection, schedule: Q01DX009 (ip), vehicle: Klucel (hydroxypropylcellulose) (HPC)); 100 % of control (endpoint: mean survival time, dose: 25.0 mg/kg/injection, schedule: Q04DX003 (ip), vehicle: Klucel (hydroxypropylcellulose) (HPC)); 102 % of control (endpoint: mean survival time, dose: 50.0 mg/kg/injection, schedule: Q04DX003 (ip), vehicle: Klucel (hydroxypropylcellulose) (HPC)).

`CCCCn1c(=O)cc[nH]c1=O`: the T/C by setting is: under setting [1], 99 % of control; under setting [2], 91 % of control; under setting [3], 93 % of control.

In the case of `CCC1(c2ccccc2)C2C(=O)NC(=O)C1C(=O)NC2=O` (configuration not stated), the T/C was 98 % of control (endpoint: mean survival time, dose: 100.0 mg/kg/injection, schedule: Q01DX001 (ip), vehicle: saline); 95 % of control (endpoint: mean survival time, dose: 200.0 mg/kg/injection, schedule: Q01DX001 (ip), vehicle: saline); 101 % of control (endpoint: mean survival time, dose: 400.0 mg/kg/injection, schedule: Q01DX001 (ip), vehicle: saline).
